The text below walks through data of patent US20150175556A1, “DIHYDROPYRIMIDIN-2(1H)-ONES AND DIHYDROPYRIMIDIN-2(1H)-THIONES AS INHIBITORS OF SODIUM IODIDE SYMPORTER” (COMMISSARIAT A L'ENERGIE ATOMIQUE ET AUX ENERGIES …, priority 2012, published 2015).

Like-named read-outs stand apart in the source and are kept apart here.

For series [1], the target named is T1, hNIS-HEK293 cells (Homo sapiens, UniProt Q92911).
T1 construct: host or cells: HEK293 stably expressing human NIS
T1 sequence (Q92911 1-643): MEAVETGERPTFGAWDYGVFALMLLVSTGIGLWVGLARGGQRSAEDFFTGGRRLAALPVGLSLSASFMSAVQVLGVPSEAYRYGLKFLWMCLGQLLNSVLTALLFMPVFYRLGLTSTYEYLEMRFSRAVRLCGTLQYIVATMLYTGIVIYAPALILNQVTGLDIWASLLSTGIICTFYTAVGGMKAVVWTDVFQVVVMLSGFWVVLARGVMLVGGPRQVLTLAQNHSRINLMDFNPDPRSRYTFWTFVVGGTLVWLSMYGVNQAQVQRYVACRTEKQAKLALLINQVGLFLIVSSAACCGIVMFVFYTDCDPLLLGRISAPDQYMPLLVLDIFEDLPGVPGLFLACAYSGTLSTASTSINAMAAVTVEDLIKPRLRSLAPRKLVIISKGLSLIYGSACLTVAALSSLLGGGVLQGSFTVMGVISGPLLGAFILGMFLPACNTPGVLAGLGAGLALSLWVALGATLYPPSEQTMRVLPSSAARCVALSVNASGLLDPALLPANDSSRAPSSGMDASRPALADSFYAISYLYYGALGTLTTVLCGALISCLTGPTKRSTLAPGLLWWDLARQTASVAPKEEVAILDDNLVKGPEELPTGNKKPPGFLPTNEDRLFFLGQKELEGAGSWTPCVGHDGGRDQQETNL
The note with it: cited from earlier work.

The conditions of series [2]: concentration up to 200 μM; cited from earlier work.
Series [3] concerns the target T2, sodium iodide symporter (NIS), iodide transport in FRTL5 cells (Rattus norvegicus, UniProt Q63008).
T2 construct: host or cells: FRTL5 (rat thyroid-derived cells), endogenous NIS
T2 sequence (Q63008 1-618): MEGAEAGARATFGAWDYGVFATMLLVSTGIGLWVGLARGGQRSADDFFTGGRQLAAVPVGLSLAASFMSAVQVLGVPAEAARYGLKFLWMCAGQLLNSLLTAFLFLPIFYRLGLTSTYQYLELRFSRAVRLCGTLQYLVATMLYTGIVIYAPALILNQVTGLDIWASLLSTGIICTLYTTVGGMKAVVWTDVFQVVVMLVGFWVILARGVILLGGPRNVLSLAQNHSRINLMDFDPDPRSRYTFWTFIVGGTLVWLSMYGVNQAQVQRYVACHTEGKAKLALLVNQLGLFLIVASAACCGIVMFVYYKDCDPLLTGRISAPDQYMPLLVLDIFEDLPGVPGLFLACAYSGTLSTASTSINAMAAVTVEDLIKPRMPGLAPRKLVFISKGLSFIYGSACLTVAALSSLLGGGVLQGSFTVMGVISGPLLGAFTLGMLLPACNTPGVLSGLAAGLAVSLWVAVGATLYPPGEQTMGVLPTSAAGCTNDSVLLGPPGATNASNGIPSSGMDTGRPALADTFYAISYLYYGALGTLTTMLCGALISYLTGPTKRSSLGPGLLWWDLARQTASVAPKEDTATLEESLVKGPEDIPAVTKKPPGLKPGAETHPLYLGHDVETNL
The note with it: F. Waltz et al., Anal. Biochem., 2010; read-out: IC50, competitive inhibition of iodide transport in FRTL5 cells; cited from earlier work.

The target in series [4] is T3, iodide transport in rat thyroid-derived cell lines (FRTL5) (Rattus norvegicus, UniProt Q63008).
T3 construct: host or cells: FRTL5 (rat thyroid-derived cells), endogenous NIS
T3 sequence (Q63008 1-618): T2 sequence (Q63008 1-618)
The note with it: reported in literature (N. Lecat-Guillet et al., 2008); read-out: IC50, iodide uptake in FRTL5 cells; cited from earlier work.

Series [5] has as its target T4, sodium iodide symporter (NIS), iodide uptake in FRTL5 cells (Rattus norvegicus, UniProt Q63008).
T4 construct: endogenous in cells; host or cells: FRTL5 (rat thyroid-derived cells)
T4 sequence (Q63008 1-618): T2 sequence (Q63008 1-618)
As to the kind of experiment: Inhibition of iodide uptake in FRTL5 cells, non radioactive arsenic/cerium assay. Format: cell-based. The note with it: averaged from three or four independent experiments, NaI 10 μM, 1 hour, 20°C, read-out: IC50 (μM), inhibitory activity against iodide uptake in FRTL5 cells. Here is the method:
Some of the synthesized compounds were evaluated for their ability to inhibit iodide entrapment in FRTL5 cells. The IC50 values were measured in at least […] independent experiments.
The biological activity of each compound was determined in FRTL5 cells, using a non radioactive arsenic/cerium assay as described in F. Waltz et al., Anal. Biochem., 2012, 396, 91-95. Compound potency was expressed as IC50, the concentration of compound necessary to achieve 50% inhibition of iodide uptake. Briefly, to FRTL5 cells at 70-90% confluence was added compound (200 μM, 10 μM, 0.5 μM, 25 nM, 1.2 nM, 60 pM, […], and 0.15 pM final), followed by NaI (10 μM final). After 1 hour incubation at 20±1° C., supernatant was removed and the cells were immediately assayed for iodide content using the modified As/Ce Sandell-Kolthoff reaction. NaClO4 was tested in each microplate as assay controls. The IC50 values of all compounds were measured least thrice independently.
Stock solutions of tested compounds were prepared in DMSO (20 mM) and that of NaClO4 in water (20 mM). These stock solutions were stored at 4° C. for up to 2 months. Sample dilutions: the day of the assay, a daughter plate (clear flat-bottomed 96-well polystyrene microplates, Costar 9017) was prepared from 20 mM stock solutions. NaClO4 (column 2) and DHPM samples (columns 4 to 11) were diluted at 10× the final concentration in uptake buffer.
FRTL5 cells were cultured as described in F. S. Ambesi-Impiombato et al., Proc. Natl. Acad. Sci. USA, 1980, 77, 3455-3459. Briefly, FRTL5 cells were cultured in Coon's modified F12 medium supplemented with 5% heat-inactivated fetal bovine serum (Invitrogen), 2 mM L-glutamine, 100 U/mL penicillin, 0.1 mg/mL streptomycin, 10 μg/mL insulin, 10 nM hydrocortisone, 10 ng/mL Gly-His-Lys acetate, 1 mU/mL TSH, 5 μg/mL transferrin at 37° C. and 5% CO2. For iodide uptake assays, 200 μL of FRTL5 cells with density of 250,000 cells/mL were dispensed in each well of clear flat-bottomed 96-well polystyrene microplates (Costar 3628) using the Multidrop 384 (ThermoFisher Scientific), and further cultured until confluence reached 80-90% (3-4 days).
The culture medium of FRTL5 monolayer cells at 80-90% confluence was replaced by uptake buffer (20° C.) via continuous aspiration/dispense cycle (600 μL) using a 96-needle head plate washer PW 384 (Tecan). The 96-needle head was set to a vertical position such that 80 μL of fresh uptake buffer remained in each well at the end of the cycle. The samples (10 μL each) from the daughter plate were transferred all at once to the assay plate using the 96-tip head pipettor Liquidator 96 (Mettler Toledo). Immediately after, 10 μL of a NaI solution at 100 μM was added to each well of the assay plate using the Liquidator 96. The assay plate was left to stand in the dark at 20±1° C. for 60 min. The assay plate was then washed with cold (4° C.) uptake buffer using the PW 384 plate washer and residual supernatant was immediately discarded by inverting the assay plate on absorbent paper.
Sodium iodide standards (S1 to S7) and water (S0) were distributed in duplicate (100 μL each) in the first and last column of the assay plate. Water (100 μL) was added to the columns with the Multidrop 384. 100 μL of the ammonium cerium (IV) sulfate solution (10.5 mM) was distributed into the columns, followed by 100 μL of the sodium arsenite (III) solution (24 mM) using the Multidrop 384. The assay plate was left to stand at 20±1° C. for 30 min. The absorbance at 420 nm (Abs420) was immediately recorded on a SpectraMax Plus 384 (Molecular Devices). A calibration curve was prepared for each plate by plotting the logarithmic conversion of the means of Abs420 (n=2) vs iodide standard concentrations (S0 to S7). The iodide concentrations in the samples were determined after linear regression of the calibration curve.

The compound `COc1ccc(COC(=O)C2=C(C)NC(=O)NC2c2ccccc2)cc1` (stereo not drawn) [Compound 1, 4-methoxybenzyl 6-methyl-2-oxo-4-phenyl-1,2,3,4-tetrahydropyrimidine-5-carboxylate] returned a melting point of 162 to 164 °C. In addition, the “Efflux of iodide from preloaded hNIS-HEK293 cells” value in series [1] is given as “can trigger a rapid efflux of iodide”. For the same compound, in series [2], the Cytotoxicity entry is recorded as “not found cytotoxic”.

In the case of `O=[N+]([O-])O` [NO3^−], in series [3], the IC50 is 250000 nM.

Take `F[B-](F)(F)c1ccc(OCc2ccccc2)cc1` [ITB11]: the IC50 in series [4] is 400 nM.

As to `[O-][Cl+3]([O-])([O-])O` [ClO4^−], in series [3], the IC50 is 140 nM.

Consider `F[P-](F)(F)(F)(F)F` [PF6^−], for which the IC50 in series [3] was 9 nM.

Turning to `F[B-](F)(F)F` [BE4^−], the IC50 in series [3] is 750 nM.

With `CC1=C(C(=O)OCc2ccc(Cl)cc2)C(c2ccccc2)NC(=O)N1` (stereo not drawn) [Compound 34, 4-Chlorobenzyl 6-methyl-2-oxo-4-phenyl-1,2,3,4-tetrahydropyrimidine-5-carboxylate], the melting point was in the range of 216 to 217 °C. The IC50 in series [5] (Table 2, variations at R5) came to 0.3 µM.

`COc1ccc(COC(=O)C2=C(c3cccs3)NC(=O)NC2c2ccccc2)cc1` (stereo not drawn) [Compound 48, 4-Methoxybenzyl 2-oxo-4-phenyl-6-(thiophen-2-yl)-1,2,3,4-tetrahydropyrimidine-5-carboxylate]: the melting point was in the range of 78 to 80 °C. Moreover, the IC50 in series [5] (Table 3, variations at R2) was 0.55 µM.

As for `COc1ccc(COC(=O)C2=C(Cc3ccccc3)NC(=O)NC2c2ccccc2)cc1` (stereo not drawn) [Compound 45, 4-Methoxybenzyl 6-benzyl-2-oxo-4-phenyl-1,2,3,4-tetrahydropyrimidine-5-carboxylate], the melting point lay in the range of 140 to 142 °C. Further, in series [5] (Table 3, variations at R2), the 50% inhibitory concentration (IC50) stood at 0.25 µM.

The compound `COc1ccc(COC(=O)C2=C(C)NC(=O)NC2c2cccc(F)c2)cc1` (stereo not drawn) [Compound 24, 4-Methoxybenzyl 4-(3-fluorophenyl)-6-methyl-2-oxo-1,2,3,4-tetrahydropyrimidine-5-carboxylate] registered a melting point of 173 to 174 °C. Moreover, the IC50 in series [5] (Table 1, variations at R1) is 0.075 µM.

`CCC1=C(C(=O)OCc2ccc(OC)cc2)C(c2ccccc2)NC(=O)N1` (stereo not drawn) [Compound 40, 4-Methoxybenzyl 6-ethyl-2-oxo-4-phenyl-1,2,3,4-tetrahydropyrimidine-5-carboxylate] showed a melting point of 62 to 65 °C. In addition, the IC50 in series [5] (Table 3, variations at R2) turned out to be 0.07 µM.

By melting point is commonly meant the temperature of the solid-liquid transition. The IC50 is the midpoint of a concentration-inhibition curve.
